Assay results reported in the RepoRT retention time repository (doi:10.1021/es4044374).

Assay: RP, Waters XBridge C18, 50 × 2.1 mm, 3.5 µm, 30 °C, 0.2 mL/min, estimated dead time 0.55 min; A: water + 0.1% formic acid, pH 3; B: methanol + 0.1% formic acid, pH 3; gradient (min/%B) 0/10 4/50 17/95 25/95 25.1/10 30/10
Conditions: stereoisomer not certain

| Compound | LC retention time [min] |
| --- | --- |
| COC(=O)C1C2CC3c4[nH]c5cc(OC)ccc5c4CCN3CC2CC(OC(=O)c2cc(OC)c(OC)c(OC)c2)C1OC (stereo unspecified) [Reserpine] | 8.3 |
| CCS(=O)(=O)c1cccnc1S(=O)(=O)NC(=O)Nc1nc(OC)cc(OC)n1 [Rimsulfuron] | 7.9 |
| O=C(O)C(c1ccccc1)C1CCCCN1 (stereo unspecified) [Ritalinic acid] | 4.7 |
| CC(C)c1nc(CN(C)C(=O)NC(C(=O)NC(Cc2ccccc2)CC(O)C(Cc2ccccc2)NC(=O)OCc2cncs2)C(C)C)cs1 (stereo unspecified) [Ritonavir] | 13.6 |
| O=C1NS(=O)(=O)c2ccccc21 [Saccharin] | 2.5 |
| CCNc1nc(NCC)[nH]c(=O)n1 [Simazine-2-hydroxy] | 3.5 |
| CCNc1nc(Cl)nc(NCC)n1 [Simazine] | 6.9 |
| CCC(C)(C)C(=O)OC1CC(C)C=C2C=CC(C)C(CCC3CC(O)CC(=O)O3)C21 (stereo unspecified) [Simvastatin] | 16 |
| NC(CC(=O)N1CCn2c(nnc2C(F)(F)F)C1)Cc1cc(F)c(F)cc1F (stereo unspecified) [Sitagliptin] | 5.2 |
| CC(C)NCC(O)c1ccc(NS(C)(=O)=O)cc1 (stereo unspecified) [Sotalol] | 1.6 |
| CC(=O)SC1CC2=CC(=O)CCC2(C)C2CCC3(C)C(CCC34CCC(=O)O4)C12 (stereo unspecified) [Spironolactone] | 10.2 |
| CCCN(CC)CC1COC2(CCC(C(C)(C)C)CC2)O1 (stereo unspecified) [Spiroxamine] | 10.1 |
| OCC1OC(OC2(CCl)OC(CCl)C(O)C2O)C(O)C(O)C1Cl (stereo unspecified) [Sucralose] | 4.4 |
| CS(=O)(=O)c1ccc(C(=O)C2C(=O)CCCC2=O)c(Cl)c1 [Sulcotrione] | 6.8 |
| Cc1cc(C)nc(NS(=O)(=O)c2ccc(N)cc2)n1 [Sulfamethazine] | 3.9 |
| Nc1ccc(S(=O)(=O)Nc2ccccn2)cc1 [Sulfapyridine] | 2.9 |
| Nc1ccc(S(=O)(=O)Nc2nccs2)cc1 [Sulfathiazole] | 2.8 |
| CC(C)(C)C(O)(CCc1ccc(Cl)cc1)Cn1cncn1 (stereo unspecified) [Tebuconazole] | 12.8 |
| CCc1ccc(C(=O)NN(C(=O)c2cc(C)cc(C)c2)C(C)(C)C)cc1 [Tebufenozide] | 12.4 |

| Compound | LC retention time [min] |
| --- | --- |
| CC(C)N(Cc1ccccc1)C(=O)C(C)(C)C [Tebutam] | 11.7 |
| O=C(NC(=O)c1c(F)cccc1F)Nc1cc(Cl)c(F)c(Cl)c1F [Teflubenzuron] | 16.1 |
| CCNc1nc(NC(C)(C)C)nc(OC)n1 [Terbumeton] | 6.7 |
| CCNc1nc(NC(C)(C)C)nc(SC)n1 [Terbutryn] | 8.5 |
| CCNc1nc(NC(C)(C)C)[nH]c(=O)n1 [Terbutylazine-2-hydroxy] | 5.6 |
| CCNc1nc(Cl)nc(NC(C)(C)C)n1 [Terbutylazine] | 10.1 |
| NC(=O)N=C1SCCN1Cc1ccc(Cl)nc1 [Thiacloprid-amide] | 4.6 |
| N#CN=C1SCCN1Cc1ccc(Cl)nc1 [Thiacloprid] | 5.8 |
| CN1COCN(Cc2cnc(Cl)s2)C1=N[N+](=O)[O-] [Thiamethoxam] | 4.1 |
| COC(=O)c1sccc1S(=O)(=O)NC(=O)Nc1nc(C)nc(OC)n1 [Thifensulfuron-methyl] | 7.2 |
| CCCC(C)C1(CC)C(=O)NC(=S)NC1=O (stereo unspecified) [Thiopental] | 9 |
| COc1cccc(C2(O)CCCCC2CN(C)C)c1 (stereo unspecified) [Tramadol] | 4.9 |
| O=C(Nc1ccc(Cl)cc1)Nc1ccc(Cl)c(Cl)c1 [Triclocarban] | 14.8 |
| O=C(O)COc1nc(Cl)c(Cl)cc1Cl [Triclopyr] | 10.3 |
| CCCN(CCC)c1c([N+](=O)[O-])cc(C(F)(F)F)cc1[N+](=O)[O-] [Trifluralin] | 16.5 |
| COc1cc(Cc2cnc(N)nc2N)cc(OC)c1OC [Trimethoprim] | 3.8 |
| O=C1CC(C(=O)O)CC(=O)C1=C(O)C1CC1 (stereo unspecified) [Trinexapac] | 6.9 |
| CCCCC(=O)N(Cc1ccc(-c2ccccc2-c2nn[nH]n2)cc1)C(C(=O)O)C(C)C (stereo unspecified) [Valsartan] | 11.2 |
| COc1ccc(C(CN(C)C)C2(O)CCCCC2)cc1 (stereo unspecified) [Venlafaxine] | 6.2 |

The remaining lines, values ahead:

| LC retention time [min] | Compound |
| --- | --- |
| 1.9 | CNC(=C[N+](=O)[O-])NCCSCc1ccc(CN(C)C)o1 [Ranitidine] |
| 9.2 | CC(C)c1nc(N(C)S(C)(=O)=O)nc(-c2ccc(F)cc2)c1C=CC(O)CC(O)CC(=O)O (stereo unspecified) [Rosuvastatin] |
| 10.1 | CCC1OC(=O)C(C)C(OC2CC(C)(OC)C(O)C(C)O2)C(C)C(OC2OC(C)CC(N(C)C)C2O)C(C)(O)CC(C)C(=NOCOCCOC)C(C)C(O)C1(C)O (stereo unspecified) [Roxithromycin] |
| 9.8 | CCNc1nc(Cl)nc(NC(C)CC)n1 (stereo unspecified) [Sebuthylazine] |
| 6.7 | CCNc1nc(NC(C)CC)nc(OC)n1 (stereo unspecified) [Secbumeton] |
| 4.9 | CCNc1nc(NCC)nc(OC)n1 [Simeton] |
| 2.2 | Nc1ccc(S(=O)(=O)Nc2ncccn2)cc1 [Sulfadiazine] |
| 5.7 | COc1cc(NS(=O)(=O)c2ccc(N)cc2)nc(OC)n1 [Sulfadimethoxine] |
| 4.6 | Cc1cc(NS(=O)(=O)c2ccc(N)cc2)no1 [Sulfamethoxazole] |
| 0.9 | Nc1ccc(S(=O)(=O)O)cc1 [Sulfanilic acid] |
| 9.2 | CCCc1nc2c(C)cc(-c3nc4ccccc4n3C)cc2n1Cc1ccc(-c2ccccc2C(=O)O)cc1 [Telmisartan] |
| 2.9 | CC(C)(C)Nc1nc(N)[nH]c(=O)n1 [Terbutylazine-desethyl-2-hydroxy] |
| 7.6 | CC(C)(C)Nc1nc(N)nc(Cl)n1 [Terbutylazine-desethyl] |
| 8.7 | CC(CN(C)C)CN1c2ccccc2CCc2ccccc21 (stereo unspecified) [Trimipramine] |
| 8.9 | CCOC(=O)C1CC(=O)C(=C(O)C2CC2)C(=O)C1 (stereo unspecified) [Trinexapac-ethyl] |
| 10.8 | COc1nc(NC(=O)NS(=O)(=O)c2ccccc2C(F)(F)F)nc(C(F)(F)F)n1 [Tritosulfuron] |
| 8.1 | CCC1OC(=O)CC(O)C(C)C(OC2OC(C)C(OC3CC(C)(O)C(O)C(C)O3)C(N(C)C)C2O)C(CC=O)CC(C)C(=O)C=CC(C)=CC1COC1OC(C)C(O)C(OC)C1OC (stereo unspecified) [Tylosin] |
| 7.3 | COc1ccc(CCN(C)CCCC(C#N)(c2ccc(OC)c(OC)c2)C(C)C)cc1OC (stereo unspecified) [Verapamil] |
